Laboratory results published in article PMC10577379, “Isolation of anticancer bioactive secondary metabolites from the sponge-derived endophytic fungi Penicillium sp. and in-silico computational docking approach” (Frontiers in Microbiology, 2023).
In brackets after ≈: the same amount, converted by molar mass. Entries after “also recorded” stand apart in the source; their conditions may differ. Where two headings read alike, the source gives them in different places.

Experiments:
cancer cell lines = experiment: Anticancer screening, whole cell line panel; format: cell-based; settings: in-vitro screening, tested cell lines, in words
Experimental: (§1) Cytotoxicity was assessed using the Cell Counting Kit (CCK-8) (Dojindo, Japan) method adopted by Wang et al. ([2015a]). Cancer cell lines used in this study included K562, MCF-7, A549, HuH-7, H1975, HeLa, HL7702, DU145, HL60, MOLT-4. Additionally, a normal cell line, MCF10A, was included. All cell lines were procured from Shanghai Cell Bank, Chinese Academy of Sciences. Cells were routinely grown and maintained in RPMI or DMEM media with 10% Fetal Bovine Serum and 1% penicillin/streptomycin. Various concentrations of seven isolated compounds from Penicillium sp. were dissolved in 100% DMSO with a maximum concentration of 200 μg/mL and serially diluted to a final 0.1% DMSO concentration to treat cells for […]. Taxol was used as a positive control, and DMSO was used as a negative control. Cytotoxicity screening assay experiments were conducted in triplicate to obtain the standard error ± mean value. The percentage of cytotoxicity (IC50) alongside the selectivity index was then calculated using the formula:
(§2) IC50=(absorbance of the cell without treatment -absorbance of cells with treatment/ absorbance of the cell without treatment)× 100
(§3) Selective index (SI)=CC50value for normal cells/IC50for cancer cells

K562 = experiment: Cytotoxicity, Cell Counting Kit (CCK-8); format: cell-based; settings: Homo sapiens, CCK-8, mean ± SD, n = 3, unit from b62 and Table S1 title (there headed MIC)
Experimental: as §1, §2, §3

HeLa = experiment: Cytotoxicity, Cell Counting Kit (CCK-8); format: cell-based; settings: Homo sapiens, CCK-8, mean ± SD, n = 3, unit from b62 and Table S1 title (there headed MIC)
Experimental: as §1, §2, §3

MOLT-4 = experiment: Cytotoxicity, Cell Counting Kit (CCK-8); format: cell-based; settings: Homo sapiens, CCK-8, mean ± SD, n = 3, unit from b62 and Table S1 title (there headed MIC)
Experimental: as §1, §2, §3

Huh-7 = experiment: Cytotoxicity, Cell Counting Kit (CCK-8); format: cell-based; settings: Homo sapiens, CCK-8, mean ± SD, n = 3, unit from b62 and Table S1 title (there headed MIC)
Experimental: as §1, §2, §3

A549 = experiment: Cytotoxicity, Cell Counting Kit (CCK-8); format: cell-based; settings: Homo sapiens, CCK-8, mean ± SD, n = 3, unit from b62 and Table S1 title (there headed MIC)
Experimental: as §1, §2, §3

DU145 = experiment: Cytotoxicity, Cell Counting Kit (CCK-8); format: cell-based; settings: Homo sapiens, DU-145; CCK-8, mean ± SD, n = 3; unit from b62 and Table S1 title (there headed MIC)
Experimental: as §1, §2, §3

MCF-7 = experiment: Cytotoxicity, Cell Counting Kit (CCK-8); format: cell-based; settings: Homo sapiens, MCF7; CCK-8, mean ± SD, n = 3; unit from b62 and Table S1 title (there headed MIC)
Experimental: as §1, §2, §3

HL7702 = experiment: Cytotoxicity, Cell Counting Kit (CCK-8); format: cell-based; settings: Homo sapiens, L02; CCK-8, mean ± SD, n = 3; unit from b62 and Table S1 title (there headed MIC)
Experimental: as §1, §2, §3

H1975 = experiment: Cytotoxicity, Cell Counting Kit (CCK-8); format: cell-based; settings: Homo sapiens, NCI-H1975; CCK-8, mean ± SD, n = 3; unit from b62 and Table S1 title (there headed MIC)
Experimental: as §1, §2, §3

HL60 cells = experiment: Cytotoxicity, Cell Counting Kit (CCK-8); format: cell-based, human; settings: for IC50: Homo sapiens; for anticancer activity toward HL60 cells: in words
Experimental: as §1, §2, §3

[1] = test system: Mycobacterium tuberculosis H37Ra (ATCC 25177); experiment: Anti-tuberculosis assay (MIC); format: cell-based; settings: M. tuberculosis H37Ra, read-out: Antitubercular activity MIC
Experimental: The H37Ra strain of Mycobacterium tuberculosis (ATCC 25177) purchased from the American Type Culture Collection (ATCC) was used in the anti-TB bioassay. The anti-tuberculosis assay was based on the one used by Wang et al. ([2015b]). INH (Isoniazid) was used as the positive control, and DMSO was used as a negative control. For the minimum inhibitory concentration (MIC) analysis, 100 μl of Mycobacterium suspension was prepared in a 96-well microtiter plate. A total of […] of double serial dilution of various concentrations of 7 isolated compounds (from 0.08 to 20 μg/mL) alongside the positive control isoniazid (1 to 417 μg/mL) was added to the well.

K562 cell lines = test system: K562 cell lines; set-up: method as in Hong et al., 2007; settings: averufin from Penicillium flavidorsum SHK1-27; ref Hong et al., 2007; cited from earlier work
MCF-10A = experiment: Cytotoxicity, Cell Counting Kit (CCK-8), normal cell line; format: cell-based; settings: Homo sapiens, CCK-8, n = 3, unit from Table S1 title
Experimental: as §1, §2, §3

SGC-7901 cell line = test system: SGC-7901 cell line; set-up: method as in Yang et al., 2009; settings: in words; ref Yang et al., 2009; cited from earlier work
[2] = test system: Escherichia coli (CGMCC 1.2385); experiment: Antimicrobial assay (MIC); format: cell-based; settings: CGMCC1, 37°C, 24 h
[3] = test system: Staphylococcus aureus (CGMCC 1.230); experiment: Antimicrobial assay (MIC); format: cell-based; settings: CGMCC1, 37°C, 24 h, read-out: MIC S. aureus
[4] = HL-60, CCK-8, mean ± SD, n = 3, unit from b62 and Table S1 title (there headed MIC), read-out: IC50 HL60

SMILES	IC50 (K562)	IC50 (HeLa)	IC50 (MOLT-4)	IC50 (Huh-7)	IC50 (A549)	IC50 (DU145)	IC50 (MCF-7)	IC50 (HL7702)	IC50 (H1975)	IC50 (HL60 cells; [4])	MIC [1]	IC50 (MCF-10A)	further results
CC12CCCC(O1)c1c(cc3c(c1O)C(=O)c1c(O)cc(O)cc1C3=O)O2 (stereo not drawn) [Compound 1, averufin]	17.4 ± 0.01 µM	8.11 ± 0.01 µM	5.77 ± 0.01 µM	3.13 ± 0.01 µM	76.1 ± 0.01 µM	91.2 ± 0.01 µM	6.71 ± 0.01 µM	3.57 ± 0.01 µM	8.64 ± 0.01 µM	1000 nM	> 50 µM	≥ 50 µM	anticancer effect against cancer cell lines (cancer cell lines): significant anticancer effect; IC50 (HL60 cells; HL-60, read-out: IC50 concentration, HL60 cell lines): 1000 nM; anticancer activity toward HL60 cells (HL60 cells): strong anticancer activity; MIC, antitumor activity toward K562 cell lines (K562 cell lines): 72.4 µmol/L (≈ 26.7 µg/mL)
CCCCC[C@@H](c1ccc(Oc2cc(C)cc(O)c2)cc1)c1c(O)cc2c(c1O)C(=O)c1cc(O)cc(O)c1C2=O [Compound 2, aspergilol-A]											> 50 µM		
COC(=O)c1cc(O)cc(OC)c1C(=O)c1c(O)cc(C)cc1O [Compound 3, sulochrin]											> 50 µM		
COc1cc(O)cc2c1C(=O)c1c(O)cc(C)cc1C2=O [Compound 5, methyl emodin]	16.3 ± 0.01 µM	24.9 ± 0.01 µM	13.6 ± 0.01 µM	25.1 ± 0.01 µM	81.3 ± 0.01 µM	101.4 ± 0.01 µM	54.3 ± 0.01 µM	67.2 ± 0.01 µM	43.5 ± 0.01 µM	13200 ± 10 nM	> 50 µM	≥ 50 µM	anticancer effect against cancer cell lines (cancer cell lines): significant anticancer effect; also recorded: weak anticancer effect; anticancer activity toward HL60 cells (HL60 cells): moderate activity; anticancer effect against the SGC-7901 cell line (SGC-7901 cell line): moderate anticancer effect
Cc1cc(O)cc(Oc2cc(C)cc(O)c2)c1 [Compound 7, diorcinol]											> 50 µM		
NNC(=O)c1ccncc1 [INH, Isoniazid, reference compound]											3.98 µM (≈ 0.546 µg/mL)		
CC(=O)O[C@H]1C(=O)[C@@]2(C)[C@H]([C@H](OC(=O)c3ccccc3)[C@]3(O)C[C@H](OC(=O)[C@H](O)[C@@H](NC(=O)c4ccccc4)c4ccccc4)C(C)=C1C3(C)C)[C@]1(OC(C)=O)CO[C@@H]1C[C@@H]2O [Taxol, reference compound]	0.003 µM	0.003 µM	0.003 µM	0.003 µM	0.024 ± 0.01 µM	0.015 ± 0.01 µM	0.002 µM	0.003 µM	0.014 ± 0.01 µM	2 nM		≥ 50 µM	
O=C(O)c1cn(C2CC2)c2cc(N3CCNCC3)c(F)cc2c1=O [ciprofloxacin, Ciprofloxacin]													MIC [2]: 0.19 µM (≈ 0.063 µg/mL); MIC [3]: 2.96 µM (≈ 0.981 µg/mL)
